Data: patent publication US11154060B2, “Microbiocidal oxadiazole derivatives” (SYNGENTA PARTICIPATIONS AG, priority 2016, dated 2021)

What was measured:
[1] = tested on: Puccinia recondita f. sp. tritici; assay: Puccinia recondita f. sp. tritici / wheat / leaf disc curative (brown rust); assay type: in vivo; details: foliar, wheat leaf segments cv. Kanzler, applied 1 day after inoculation, assessed 6-8 days after application, read-out: control of Puccinia recondita f. sp. tritici compared to untreated control
Protocol: Leaf disks or leaf segments of various plant species are cut from plants grown in a greenhouse. The cut leaf disks or segments are placed in multiwell plates (24-well format) onto water agar. The leaf disks are sprayed with a test solution before (preventative) or after (curative) inoculation. Compounds to be tested are prepared as DMSO solutions (max. 10 mg/ml) which are diluted to the appropriate concentration with 0.025% Tween20 just before spraying. The inoculated leaf disks or segments are incubated under defined conditions (temperature, relative humidity, light, etc.) according to the respective test system. A single evaluation of disease level is carried out 3 to 14 days after inoculation, depending on the pathosystem. Percent disease control relative to the untreated check leaf disks or segments is then calculated. Wheat leaf segments cv. Kanzler are placed on agar in multiwell plates (24-well format). The leaf segments are inoculated with a spore suspension of the fungus. Plates are stored in darkness at 19° C. and 75% rh. The formulated test compound diluted in water is applied 1 day after inoculation. The leaf segments are incubated at 19° C. and 75% rh under a light regime of 12 h light/12 h darkness in a climate cabinet and the activity of a compound is assessed as percent disease control compared to untreated when an appropriate level of disease damage appears in untreated check leaf segments (6-8 days after application).

Uromyces viciae-fabae = Uromyces viciae-fabae / field bean / leaf disc preventative (faba-bean rust); assay type: in vivo; details: foliar, 288 h, 100 ppm in the applied formulation, field bean leaf discs, inoculated two hours after application, 12 days after application, read-out: disease control compared to untreated control leaf discs
Protocol: Leaf disks or leaf segments of various plant species are cut from plants grown in a greenhouse. The cut leaf disks or segments are placed in multiwell plates (24-well format) onto water agar. The leaf disks are sprayed with a test solution before (preventative) or after (curative) inoculation. Compounds to be tested are prepared as DMSO solutions (max. 10 mg/ml) which are diluted to the appropriate concentration with 0.025% Tween20 just before spraying. The inoculated leaf disks or segments are incubated under defined conditions (temperature, relative humidity, light, etc.) according to the respective test system. A single evaluation of disease level is carried out 3 to 14 days after inoculation, depending on the pathosystem. Percent disease control relative to the untreated check leaf disks or segments is then calculated. Field bean leaf discs are placed on water agar in multiwell plates (96-well format) and 10 μl of the formulated test compound diluted in acetone and a spreader pipetted onto the leaf disc. Two hours after application leaf discs are inoculated by spraying a spore suspension on the lower leaf surface. The leaf discs are incubated in a climate cabinet at 22° C. with 18 hour day and 70% relative humidity. The activity of a compound is assessed as percent disease control compared to untreated when an appropriate level of disease damage appears in untreated check leaf disks (12 days after application).

[2] = tested on: Puccinia recondita f. sp. tritici; assay: Puccinia recondita f. sp. tritici / wheat / leaf disc preventative (brown rust); assay type: in vivo; details: foliar, wheat leaf segments cv. Kanzler, inoculated 1 day after application, assessed 7-9 days after application, read-out: control of Puccinia recondita f. sp. tritici compared to untreated control
Protocol: Leaf disks or leaf segments of various plant species are cut from plants grown in a greenhouse. The cut leaf disks or segments are placed in multiwell plates (24-well format) onto water agar. The leaf disks are sprayed with a test solution before (preventative) or after (curative) inoculation. Compounds to be tested are prepared as DMSO solutions (max. 10 mg/ml) which are diluted to the appropriate concentration with 0.025% Tween20 just before spraying. The inoculated leaf disks or segments are incubated under defined conditions (temperature, relative humidity, light, etc.) according to the respective test system. A single evaluation of disease level is carried out 3 to 14 days after inoculation, depending on the pathosystem. Percent disease control relative to the untreated check leaf disks or segments is then calculated. Wheat leaf segments cv. Kanzler are placed on agar in multiwell plates (24-well format) and sprayed with the formulated test compound diluted in water. The leaf disks are inoculated with a spore suspension of the fungus 1 day after application. The inoculated leaf segments are incubated at 19° C. and 75% rh under a light regime of 12 h light/12 h darkness in a climate cabinet and the activity of a compound is assessed as percent disease control compared to untreated when an appropriate level of disease damage appears in untreated check leaf segments (7-9 days after application).

Phakopsora pachyrhizi = Phakopsora pachyrhizi / soybean / leaf disc preventative (Asian soybean rust); assay type: in vivo; details: foliar, soybean leaf disks, inoculated one day after application, assessed 12-14 days after application, read-out: control of Phakopsora pachyrhizi compared to untreated control
Protocol: Leaf disks or leaf segments of various plant species are cut from plants grown in a greenhouse. The cut leaf disks or segments are placed in multiwell plates (24-well format) onto water agar. The leaf disks are sprayed with a test solution before (preventative) or after (curative) inoculation. Compounds to be tested are prepared as DMSO solutions (max. 10 mg/ml) which are diluted to the appropriate concentration with 0.025% Tween20 just before spraying. The inoculated leaf disks or segments are incubated under defined conditions (temperature, relative humidity, light, etc.) according to the respective test system. A single evaluation of disease level is carried out 3 to 14 days after inoculation, depending on the pathosystem. Percent disease control relative to the untreated check leaf disks or segments is then calculated. Soybean leaf disks are placed on water agar in multiwell plates (24-well format) and sprayed with the formulated test compound diluted in water. One day after application leaf discs are inoculated by spraying a spore suspension on the lower leaf surface. After an incubation period in a climate cabinet of 24-36 hours in darkness at 20° C. and 75% rh leaf disc are kept at 20° C. with 12 h light/12 h darkness and 75% rh. The activity of a compound is assessed as percent disease control compared to untreated when an appropriate level of disease damage appears in untreated check leaf disks (12-14 days after application).

[3] = tested on: Glomerella lagenarium (Colletotrichum lagenarium); assay: Glomerella lagenarium (Colletotrichum lagenarium) liquid culture / cucumber / preventative (anthracnose); assay type: cell-based; details: Colletotrichum orbiculare, liquid culture in PDB, 24° C., 3-4 days after application, read-out: control of Glomerella lagenarium compared to untreated control (inhibition of growth, photometric)
Protocol: Mycelia fragments or conidia suspensions of a fungus prepared either freshly from liquid cultures of the fungus or from cryogenic storage, are directly mixed into nutrient broth. DMSO solutions of the test compound (max. 10 mg/ml) are diluted with 0.025% Tween20 by a factor of 50 and 10 μl of this solution is pipetted into a microtiter plate (96-well format). The nutrient broth containing the fungal spores/mycelia fragments is then added to give an end concentration of the tested compound. The test plates are incubated in the dark at 24° C. and 96% relative humidity. The inhibition of fungal growth is determined photometrically after 2 to 7 days, depending on the pathosystem, and percent antifungal activity relative to the untreated check is calculated. Conidia of the fungus from cryogenic storage are directly mixed into nutrient broth (PDB potato dextrose broth). After placing a (DMSO) solution of test compound into a microtiter plate (96-well format), the nutrient broth containing the fungal spores is added. The test plates are incubated at 24° C. and the inhibition of growth is measured photometrically 3-4 days after application.

Row | SMILES | pest or weed control at 200 ppm [1] | pest or weed control at 100 ppm (Uromyces viciae-fabae) | pest or weed control at 200 ppm [2] | pest or weed control at 200 ppm (Phakopsora pachyrhizi) | inhibition at 20 ppm [3]
1 | CON(C)C(=O)c1ccc(-c2noc(C(F)(F)F)n2)cc1F [Compound 1.2, 2-fluoro-N-methoxy-N-methyl-4-[5-(trifluoromethyl)-1,2,4-oxadiazol-3-yl]benzamide] | ≥ 80% | ≥ 80% | ≥ 80% | ≥ 80% | –
2 | CON(Cc1c(Cl)cc(Cl)cc1Cl)C(=O)c1ccc(-c2noc(C(F)(F)F)n2)cc1F [Compound 1.3, 2-fluoro-N-methoxy-N-[(2,4,6-trichlorophenyl)methyl]-4-[5-(trifluoromethyl)-1,2,4-oxadiazol-3-yl]benzamide] | – | ≥ 80% | – | – | –
3 | CON(C(=O)c1ccc(-c2noc(C(F)(F)F)n2)cc1F)C(C)COC1CCCCO1 (stereo not shown) [Compound 1.9, 2-fluoro-N-methoxy-N-(1-methyl-2-tetrahydropyran-2-yloxy-ethyl)-4-[5-(trifluoromethyl)-1,2,4-oxadiazol-3-yl]benzamide] | – | ≥ 80% | – | – | ≥ 80%
4 | CON(C(=O)c1ccc(-c2noc(C(F)(F)F)n2)cc1F)C(C)CO (stereo not shown) [Compound 1.12, 2-fluoro-N-(2-hydroxy-1-methyl-ethyl)-N-methoxy-4-[5-(trifluoromethyl)-1,2,4-oxadiazol-3-yl]benzamide] | ≥ 80% | ≥ 80% | – | – | ≥ 80%
5 | CON(C)C(=O)Cc1ccc(-c2noc(C(F)(F)F)n2)c(F)c1 [Compound 1.18, 2-[3-fluoro-4-[5-(trifluoromethyl)-1,2,4-oxadiazol-3-yl]phenyl]-N-methoxy-N-methyl-acetamide] | ≥ 80% | – | ≥ 80% | ≥ 80% | ≥ 80%
6 | CON(C(=O)Cc1ccc(-c2noc(C(F)(F)F)n2)c(F)c1)C(C)c1ccccc1 (stereo not shown) [Compound 1.24, 2-[3-fluoro-4-[5-(trifluoromethyl)-1,2,4-oxadiazol-3-yl]phenyl]-N-methoxy-N-(1-phenylethyl)acetamide] | – | – | ≥ 80% | – | ≥ 80%
7 | CON(C(=O)Cc1ccc(-c2noc(C(F)(F)F)n2)c(F)c1)C(C)C1CC1 (stereo not shown) [Compound 1.25, N-(1-cyclopropylethyl)-2-[3-fluoro-4-[5-(trifluoromethyl)-1,2,4-oxadiazol-3-yl]phenyl]-N-methoxy-acetamide] | ≥ 80% | – | – | – | ≥ 80%
8 | COC(=O)C1(N(O)C(=O)c2ccc(-c3noc(C(F)(F)F)n3)cc2)CCN(OC)CC1 [Compound 2.1, methyl 4-[hydroxy-[4-[5-(trifluoromethyl)-1,2,4-oxadiazol-3-yl]benzoyl]amino]-1-methoxy-piperidine-4-carboxylate] | – | ≥ 80% | ≥ 80% | ≥ 80% | ≥ 80%
9 | COC(=O)[C@H](C)N(OC)C(=O)c1ccc(-c2noc(C(F)(F)F)n2)cc1 [Compound 2.3, methyl (2S)-2-[methoxy-[4-[5-(trifluoromethyl)-1,2,4-oxadiazol-3-yl]benzoyl]amino]propanoate] | ≥ 80% | ≥ 80% | – | – | ≥ 80%
10 | COC(=O)C(C)N(OC)C(=O)c1ccc(-c2noc(C(F)(F)F)n2)cc1 (stereo not shown) [Compound 2.9, methyl 2-[methoxy-[4-[5-(trifluoromethyl)-1,2,4-oxadiazol-3-yl]benzoyl]amino]propanoate] | ≥ 80% | ≥ 80% | – | – | ≥ 80%
11 | CON(C(=O)Cc1ccc(-c2noc(C(F)(F)F)n2)cc1)C1COC1 [Compound 2.19, N-methoxy-N-(oxetan-3-yl)-2-[4-[5-(trifluoromethyl)-1,2,4-oxadiazol-3-yl]phenyl]acetamide] | ≥ 80% | – | ≥ 80% | – | ≥ 80%
12 | CON(C(=O)Cc1ccc(-c2noc(C(F)(F)F)n2)cc1)C(C)c1ccccc1 (stereo not shown) [Compound 2.20, N-methoxy-N-(1-phenylethyl)-2-[4-[5-(trifluoromethyl)-1,2,4-oxadiazol-3-yl]phenyl]acetamide] | – | – | – | – | ≥ 80%
13 | CON(C(=O)Cc1ccc(-c2noc(C(F)(F)F)n2)cc1)C(C)C1CC1 (stereo not shown) [Compound 2.21, N-(1-cyclopropylethyl)-N-methoxy-2-[4-[5-(trifluoromethyl)-1,2,4-oxadiazol-3-yl]phenyl]acetamide] | – | – | – | – | ≥ 80%
14 | CON(CC1CC1)C(=O)Cc1ccc(-c2noc(C(F)(F)F)n2)cc1 [Compound 2.22, N-(cyclopropylmethyl)-N-methoxy-2-[4-[5-(trifluoromethyl)-1,2,4-oxadiazol-3-yl]phenyl]acetamide] | ≥ 80% | – | – | ≥ 80% | ≥ 80%
15 | CON(CC1CC1C1CC1)C(=O)Cc1ccc(-c2noc(C(F)(F)F)n2)cc1 (stereo not shown) [Compound 2.25, N-[(2-cyclopropylcyclopropyl)methyl]-N-methoxy-2-[4-[5-(trifluoromethyl)-1,2,4-oxadiazol-3-yl]phenyl]acetamide] | – | – | – | – | ≥ 80%
16 | O=C(Cc1ccc(-c2noc(C(F)(F)F)n2)cc1)N(O)CC1CC1C1CC1 (stereo not shown) [Compound 2.26, N-[(2-cyclopropylcyclopropyl)methyl]-N-hydroxy-2-[4-[5-(trifluoromethyl)-1,2,4-oxadiazol-3-yl]phenyl]acetamide] | ≥ 80% | – | ≥ 80% | – | ≥ 80%
